Common to all, as to design: species or system male Lewis rats
The subject of experiment [1] is CA20948 (pancreatic) tumor. Description: In vivo fluorescence imaging of tumor-bearing rats with indocyanine green (CA20948). The text has this: (§1) A non-invasive in vivo fluorescence imaging apparatus was employed to assess the efficacy of indocyanine green (ICG) in three different rat tumor cell lines of the inventive contrast agents developed for tumor detection in animal models. A LaserMax Inc. laser diode of nominal wavelength 780 nm and nominal power of 40 mW was used. The detector was a Princeton Instruments model RTE/CCD-1317-K/2 CCD camera with a Rodenstock 10 mm F2 lens (stock #542.032.002.20) attached. An 830 nm […] (CVI Laser Corp., part #F10-830-4-2) was mounted in front of the CCD input lens, such that only emitted fluorescent light from the contrast agent was imaged.
(§2) Three tumor cell lines, DSL 6/A (pancreatic), Dunning R3327-H (prostate), and CA20948 (pancreatic), which are rich in somatostatin (SST-2) receptors were induced into male Lewis rats by solid implant technique in the left flank area (Achilefu et al., Invest. Radiology, 2000, pp. 479-485). Palpable masses were detected nine days post implant.

The subject of experiment [2] is Dunning R3327-H (prostate) tumor. Description: In vivo fluorescence imaging of tumor-bearing rats with indocyanine green (Dunning R3327-H). The settings on record: left flank, 0.5 ml of 0.42 mg/ml ICG in saline, tail vein, images at 2 and 30 minutes.
Description: as §1, §2

The test system of experiment [3] is DSL 6/A (pancreatic) tumor. Description: In vivo fluorescence imaging of tumor-bearing rats with indocyanine green (DSL 6/A). The settings on record: DSL 6/A tumor, left flank; 0.5 ml of 0.42 mg/ml ICG in saline, tail vein; images at 2 and 30 minutes.
Description: as §1, §2

Molecules are shown by their SMILES.

As to `CC1(C)C(/C=C/C=C/C=C/C=C2\N(CCCCS(=O)(=O)O)c3ccc4ccccc4c3C2(C)C)=[N+](CCCCS(=O)(=O)[O-])c2ccc3ccccc3c21` [ICG, indocyanine green], the “non-specific localization into the tumor line” value in experiment [1] (compared to the other two lines) is recorded as “no non-specific localization”. Moreover, the “perfusion of the agent into the tumor (fluorescence images)” value in experiment [1] (left flank, 0.5 ml of 0.42 mg/ml ICG in saline, tail vein, images at 2 and 30 minutes) is “only a slight and transient perfusion that was cleared after only 30 minutes post injection”; in experiment [2], “slow perfusion of the agent into the tumor over time”; in experiment [3] it was “slow perfusion of the agent into the tumor over time”.

The record behind these values is patent publication US20030105300A1, “Tumor targeted photodiagnostic-phototherapeutic agents” (MALLINCKRODT INC., priority 2001, published 2003).
